# Target: APJ receptor (Homo sapiens (Human), UniProt P35414)
# Experiment: [35S]GTPγS binding assay on membranes from CHO cells stably expressing human APJ receptor
# Format: biochemical
# Settings: membranes of CHO cells stably expressing human APJ receptor, means of several independent experiments, read-out: Activity hAPJ SPA EC50 IP
# Procedure: The human APJ receptor was cloned by polymerase chain reaction and the gene encoding the receptor was subcloned in pFLAG-CMV™-3 expression vector (Sigma, Saint Louis, Mo. USA) in-house at Amgen. A GTPγS binding assay was performed on membranes prepared from CHO cells stably expressing human APJ receptor. The optimum experimental conditions for the concentrations of GDP, MgCl2, and NaCl in the assay buffer were initially determined. The assay was performed in assay buffer [20 mM HEPES, pH 7.5, 5 mM MgCl2, and 0.1% (w/v) BSA with 200 mM NaCl, 3 μM GDP] and membranes expressing human APJ receptor/well along with WGA PS beads. The reaction was initiated by addition of 0.2 nM [^35S]GTPγS (Perkin Elmer Life and Analytical Sciences, Waltham USA) in the absence or presence of various ligands and incubated at RT for 90 min. Nonspecific binding was determined in the presence of 100 μM GTPγS and was always less than 0.2% of total binding. All the results presented are means of several independent experiments and analyzed by non-linear regression methods using commercially available program Prism (GraphPad, San Diego, Calif.) to obtain EC50 detailed in Table 26.
# Sequence of APJ receptor (P35414 whole entry): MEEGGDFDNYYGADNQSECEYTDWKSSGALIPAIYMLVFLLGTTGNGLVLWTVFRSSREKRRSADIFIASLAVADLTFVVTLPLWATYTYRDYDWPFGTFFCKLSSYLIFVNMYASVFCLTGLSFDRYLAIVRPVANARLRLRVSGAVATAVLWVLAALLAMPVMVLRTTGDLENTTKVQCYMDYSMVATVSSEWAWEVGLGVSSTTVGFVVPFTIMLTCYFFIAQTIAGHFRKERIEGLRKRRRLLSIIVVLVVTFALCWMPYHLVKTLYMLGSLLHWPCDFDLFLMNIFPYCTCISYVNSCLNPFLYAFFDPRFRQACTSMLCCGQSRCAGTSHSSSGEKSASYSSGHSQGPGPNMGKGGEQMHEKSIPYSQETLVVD
row,EC50 [nM],SMILES
1,5,"COc1cccc(OC)c1-n1c(NS(=O)(=O)[C@H](C)[C@H](O)c2ccnc3c2OCCC3)nnc1-c1ccc(C)o1 (racemic) [Example 291.0, (1R,2R)-1-(3,4-Dihydro-2H-pyrano[3,2-b]pyridin-8-yl)-N-(4-(2,6-dimethoxyphenyl)-5-(5-methyl-2-furanyl)-4H-1,2,4-triazol-3-yl)-1-hydroxy-2-propanesulfonamide and (1S,2S)-1-(3,4-dihydro-2H-pyrano[3,2-b]pyridin-8-yl)-N-(4-(2,6-dimethoxyphenyl)-5-(5-methyl-2-furanyl)-4H-1,2,4-triazol-3-yl)-1-hydroxy-2-propanesulfonamide]"
2,6.1,"COc1ccccc1-n1c(NS(=O)(=O)[C@@H](C)Cc2ncc(F)cn2)nnc1-c1ccc(C)o1 (racemic) [Example 295.0, (2S)-1-(5-fluoro-2-pyrimidinyl)-N-(4-(2-methoxyphenyl)-5-(5-methyl-2-furanyl)-4H-1,2,4-triazol-3-yl)-2-propanesulfonamide and (2R)-1-(5-fluoro-2-pyrimidinyl)-N-(4-(2-methoxyphenyl)-5-(5-methyl-2-furanyl)-4H-1,2,4-triazol-3-yl)-2-propanesulfonamide]"
3,18,"COc1cccc(OC)c1-n1c(NS(=O)(=O)[C@H](C)[C@H](O)c2cccc3nccn23)nnc1-c1ccc(C)o1 (racemic) [Example 306.0, (1R,2R)—N-(4-(2,6-Dimethoxyphenyl)-5-(5-methyl-2-furanyl)-4H-1,2,4-triazol-3-yl)-1-hydroxy-1-imidazo[1,2-a]pyridin-5-yl-2-propanesulfonamide and (1S,2S)—N-(4-(2,6-dimethoxyphenyl)-5-(5-methyl-2-furanyl)-4H-1,2,4-triazol-3-yl)-1-hydroxy-1-imidazo[1,2-a]pyridin-5-yl-2-propanesulfonamide]"
4,210,"C[C@@H](Cc1ncc(F)cn1)S(=O)(=O)Nc1nnc(-c2ccco2)n1-c1ccccc1F (racemic) [Example 312.0, (2R)—N-(4-(2-Fluorophenyl)-5-(2-furanyl)-4H-1,2,4-triazol-3-yl)-1-(5-fluoro-2-pyrimidinyl)-2-propanesulfonamide and (2S)—N-(4-(2-fluorophenyl)-5-(2-furanyl)-4H-1,2,4-triazol-3-yl)-1-(5-fluoro-2-pyrimidinyl)-2-propanesulfonamide]"
5,310,"Cc1ccc(-c2nnc(NS(=O)(=O)[C@@H](C)Cc3ncc(F)cn3)n2C2CCOCC2)o1 (racemic) [Example 317.0, (2S)-1-(5-Fluoro-2-pyrimidinyl)-N-(5-(5-methyl-2-furanyl)-4-(tetrahydro-2H-pyran-4-yl)-4H-1,2,4-triazol-3-yl)-2-propanesulfonamide and (2R)-1-(5-fluoro-2-pyrimidinyl)-N-(5-(5-methyl-2-furanyl)-4-(tetrahydro-2H-pyran-4-yl)-4H-1,2,4-triazol-3-yl)-2-propanesulfonamide]"
6,610,"Cc1ccc(-c2nnc(NS(=O)(=O)[C@@H](C)Cc3ncc(F)cn3)n2C2CC2)o1 (racemic) [Example 319.0, (2R)—N-(4-Cyclopropyl-5-(5-methyl-2-furanyl)-4H-1,2,4-triazol-3-yl)-1-(5-fluoro-2-pyrimidinyl)-2-propanesulfonamide and (2S)—N-(4-cyclopropyl-5-(5-methyl-2-furanyl)-4H-1,2,4-triazol-3-yl)-1-(5-fluoro-2-pyrimidinyl)-2-propanesulfonamide]"
7,0.24,"COc1cccc(OC)c1-n1c(NS(=O)(=O)[C@H]2C[C@@H](O)CN(c3nc(C)cc(C)n3)C2)nnc1-c1ccc(C)o1 (racemic) [Example 326.0, (3S,5R)—N-(4-(2,6-Dimethoxyphenyl)-5-(5-methylfuran-2-yl)-4H-1,2,4-triazol-3-yl)-1-(4,6-dimethylpyrimidin-2-yl)-5-hydroxypiperidine-3-sulfonamide and (3R,5S)—N-(4-(2,6-dimethoxyphenyl)-5-(5-methylfuran-2-yl)-4H-1,2,4-triazol-3-yl)-1-(4,6-dimethylpyrimidin-2-yl)-5-hydroxypiperidine-3-sulfonamide]"
8,0.3,"COc1cccc(OC)c1-n1c(NS(=O)(=O)[C@H]2C[C@@H](O)CN(c3ncc(Cl)cn3)C2)nnc1-c1ccc(C)o1 (racemic) [Example 328.0, (3S,5R)-1-(5-Chloro-2-pyrimidinyl)-N-(4-(2,6-dimethoxyphenyl)-5-(5-methyl-2-furanyl)-4H-1,2,4-triazol-3-yl)-5-hydroxy-3-piperidinesulfonamide and (3R,5S)-1-(5-chloro-2-pyrimidinyl)-N-(4-(2,6-dimethoxyphenyl)-5-(5-methyl-2-furanyl)-4H-1,2,4-triazol-3-yl)-5-hydroxy-3-piperidinesulfonamide]"
9,0.38,"COc1cccc(OC)c1-n1c(NS(=O)(=O)[C@H]2C[C@@H](O)CN(c3ccc(F)c(C#N)c3)C2)nnc1-c1ccc(C)o1 (racemic) [Example 329.0, (3S,5R)-1-(3-Cyano-4-fluorophenyl)-N-(4-(2,6-dimethoxyphenyl)-5-(5-methyl-2-furanyl)-4H-1,2,4-triazol-3-yl)-5-hydroxy-3-piperidinesulfonamide and (3R,5S)-1-(3-cyano-4-fluorophenyl)-N-(4-(2,6-dimethoxyphenyl)-5-(5-methyl-2-furanyl)-4H-1,2,4-triazol-3-yl)-5-hydroxy-3-piperidinesulfonamide]"
10,0.45,COc1cccc(OC)c1-n1c(NS(=O)(=O)[C@H]2C[C@@H](O)CN(c3ncc(F)cn3)C2)nnc1-c1ccc(C)o1 (racemic) [Example 332.0]
11,0.45,"COc1cccc(OC)c1-n1c(NS(=O)(=O)[C@H]2C[C@@H](O)CN(c3cc(C#N)ccn3)C2)nnc1-c1ccc(C)o1 (racemic) [Example 333.0, (3S,5R)-1-(4-Cyanopyridin-2-yl)-N-(4-(2,6-dimethoxyphenyl)-5-(5-methylfuran-2-yl)-4H-1,2,4-triazol-3-yl)-5-hydroxypiperidine-3-sulfonamide and (3R,5S)-1-(4-cyanopyridin-2-yl)-N-(4-(2,6-dimethoxyphenyl)-5-(5-methylfuran-2-yl)-4H-1,2,4-triazol-3-yl)-5-hydroxypiperidine-3-sulfonamide]"

row,SMILES,EC50 [nM]
1,"COc1cccc(OC)c1-n1c(NS(=O)(=O)[C@@H](C)[C@@H](O)c2coc(C)n2)nnc1-c1ccc(C)o1 (racemic) [Example 300.0, (1R,2R)—N-(4-(2,6-Dimethoxyphenyl)-5-(5-methyl-2-furanyl)-4H-1,2,4-triazol-3-yl)-1-hydroxy-1-(2-methyl-1,3-oxazol-4-yl)-2-propanesulfonamide and (1S,2S)—N-(4-(2,6-dimethoxyphenyl)-5-(5-methyl-2-furanyl)-4H-1,2,4-triazol-3-yl)-1-hydroxy-1-(2-methyl-1,3-oxazol-4-yl)-2-propanesulfonamide]",12
2,"COc1cccc(OC)c1-n1c(NS(=O)(=O)[C@H]2C[C@@H](O)CN(c3ncc(F)cc3C#N)C2)nnc1-c1ccc(C)o1 (racemic) [Example 331.0, (3S,5R)-1-(3-Cyano-5-fluoropyridin-2-yl)-N-(4-(2,6-dimethoxyphenyl)-5-(5-methylfuran-2-yl)-4H-1,2,4-triazol-3-yl)-5-hydroxypiperidine-3-sulfonamide and (3R,5S)-1-(3-cyano-5-fluoropyridin-2-yl)-N-(4-(2,6-dimethoxyphenyl)-5-(5-methylfuran-2-yl)-4H-1,2,4-triazol-3-yl)-5-hydroxypiperidine-3-sulfonamide]",0.45
